Data from patent US10369113B2, “Prostate specific membrane antigen (PSMA) targeted nanoparticles for therapy of prostate cancer” (The Johns Hopkins University, priority 2007, dated 2019).

Test system: PSMA-expressing LNCaP human prostate cancer cells
Test: In vitro toxicity of nanoparticles (MTT assay after 15 min exposure)
Assay type: cell-based
Details: 48 hrs after 15 min exposure, 100 nM docetaxel equivalent, read-out: inhibition of cell growth
Experimental: The cytotoxicity of the nontargeted particles in that study was ascribed to a combination of nonspecific uptake and to the expected nonspecific release of docetaxel from the particle into the media over the exposure period. […] Following determination of the amount of docetaxel loading in the particles, PSMA-expressing LNCaP human prostate cancer cells were exposed to equimolar amounts (i.e. 100 nM) of loaded nanoparticles or free docetaxel. To minimize the effects of nonspecific endocytosis, cells were only exposed to test compounds for 15 min at which time cells were washed and then placed in drug free media. Cell counts were determined by converting absorbance from MTT assay to cell number based on a standard curve of absorbance from MTT assay of known amounts of LNCaP cells. In this assay, 48 hrs following exposure, the growth of cells exposed to the nontargeted nanoPEG particles was inhibited by 65% while cell growth was inhibited 89% by docetaxel and 95% by the nanoPSMAi2 particles. […]
Cytotoxicity assays were performed as described previously (Denmeade, S. R., et al. J Natl Cancer Inst, 95: 990-1000, 2003). […] Cells were then incubated in media at 37° C. and at the end of 48 hours and 96 hours, effects on cell growth were determined using the MTT assay (Promega, WI) according to manufacturer's instructions.

For `CC(=O)O[C@@]12CO[C@@H]1C[C@H](O)[C@@]1(C)C(=O)[C@H](O)C3=C(C)[C@@H](OC(=O)[C@H](O)[C@@H](NC(=O)OC(C)(C)C)c4ccccc4)C[C@@](O)([C@@H](OC(=O)c4ccccc4)[C@H]21)C3(C)C` [docetaxel], the inhibition at 0.1 µM was 89%.
